Values quoted from earlier work in US20060058225A1, “Used of inhibitors of phospholipase a2 for the treatment, prevention or diagnosis of neural inflammatory or demyelinating disease” (McGill University, priority 2002, published 2006).
Read-outs that look alike come from different tables or passages of the source.

Tests used:
[1] = test system: EAE; conditions: guinea pigs
[2] = biological target: T1, cPLA2 (Homo sapiens, UniProt P47712)
T1 sequence (P47712 1-749): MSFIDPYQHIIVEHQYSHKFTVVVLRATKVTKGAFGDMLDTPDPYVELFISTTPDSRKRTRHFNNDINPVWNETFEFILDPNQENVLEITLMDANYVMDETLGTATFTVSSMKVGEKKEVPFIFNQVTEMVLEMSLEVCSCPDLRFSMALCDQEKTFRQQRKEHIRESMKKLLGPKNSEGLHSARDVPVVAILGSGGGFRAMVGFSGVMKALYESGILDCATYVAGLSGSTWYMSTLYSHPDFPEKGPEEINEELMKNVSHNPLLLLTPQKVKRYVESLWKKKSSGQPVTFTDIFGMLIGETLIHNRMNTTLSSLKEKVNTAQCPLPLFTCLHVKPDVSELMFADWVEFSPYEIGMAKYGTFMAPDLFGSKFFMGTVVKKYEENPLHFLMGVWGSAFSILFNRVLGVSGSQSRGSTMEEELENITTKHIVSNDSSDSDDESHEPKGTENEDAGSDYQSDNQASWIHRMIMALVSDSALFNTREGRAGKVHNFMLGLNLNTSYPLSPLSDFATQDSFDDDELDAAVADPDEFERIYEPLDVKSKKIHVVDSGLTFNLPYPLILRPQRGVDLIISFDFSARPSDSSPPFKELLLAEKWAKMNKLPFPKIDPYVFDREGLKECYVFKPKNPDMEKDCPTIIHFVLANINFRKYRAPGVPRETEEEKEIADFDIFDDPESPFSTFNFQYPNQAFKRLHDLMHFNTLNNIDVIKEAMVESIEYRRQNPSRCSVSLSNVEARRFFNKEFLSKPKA

[3] = test system: Ca++-independent PLA2
[4] = test system: EAE
[5] = test system: EAE; conditions: for disease severity score in treated mice: timing of treatment not stated
[6] = test system: 180 kDa calcium-dependent form of cPLA2; conditions: isolated from human brain
[7] = test system: MS; conditions: for effect on relapses: MS patients
[8] = test system: sPLA2
[9] = test system: EAE; remark: listed apart in the source
[10] = treatment given after symptoms occurred

Molecule: O=C(O)c1cc(/N=N/c2ccc(S(=O)(=O)Nc3ccccn3)cc2)ccc1O [sulfasalazine]
- disease incidence [1]: reduced disease incidence

Molecule: O=C1O/C(=C/Br)CCC1c1cccc2ccccc12 (stereo not shown) [bromoenol lactone]
- inhibition of cPLA2 [2]: inhibitors
- inhibition of Ca++-independent PLA2 [3]: inhibitors

Molecule: CC1=C(/C=C/C(C)=C/C=C/C(C)=C/C(N)=O)C(C)(C)CCC1 [retinamide]
- relapse ([4]; given after disease symptoms appeared): no relapse
- clinical grade, end of course ([4]; given prior to EAE induction): 0.75
- relapse ([4]; given prior to EAE induction): no sign of relapse
- clinical grade reached ([4]; given prior to EAE induction, controls 3 during relapses): 2
- clinical grade, end of course [4, 10]: 2
- clinical grade, start of course [4, 10]: 4

Molecule: NS(=O)(=O)c1cccc2c1c([N+](=O)[O-])cc1nc(O)c(O)nc12 [NBQX]
- clinical score in treated animals ([4]; in vivo): 1.5

Molecule: estrogen
- delay of disease onset ([5]; mice): about 10 days
- reduction of EAE incidence ([5]; mice, timing not given): ~30%
- disease severity score in treated mice [5]: 1.5

Molecule: bromophenacyl bromide
- inhibition of 180 kDa calcium-dependent cPLA2 [6]: inhibited

Molecule: Glatiramer acetate
- effect on relapses [7]: decreases the rate of relapse
- side effects ([7]; human, in vivo): cardiovascular problems such as chest pain, flushing and tachycardia

Molecule: IFN-γ: interferon gamma
- effect on relapses [7]: increases the severity of the rate of relapse

Molecule: O=C(NN=C1CCCCC1)C(=O)NN=C1CCCCC1 [cuprizone]
- clinical score in treated mice ([5]; treatment before symptoms appeared (cuprizone: one week before EAE induction)): 3.3

Molecule: O=C(CBr)c1ccc(Br)cc1 [p-bromophenacyl bromide]
- inhibition of sPLA2 activity [8]: blocked

Molecule: CCCOc1cc([C@]2(C)CNC(=O)O2)ccc1OC [Mesopram]
- EAE occurrence ([9]; rats treated before the onset of symptoms): prevented
- clinical score in treated mice ([5]; treatment after symptoms began / at first clinical signs): 2.7

Molecule: O=C1c2c(O)ccc(O)c2C(=O)c2c(NCCNCCO)ccc(NCCNCCO)c21 [mitroxantrone]
- effect on relapses [7]: reduces relapse rate
- side effects ([7]; patients): cardiac toxicity

Molecule: MT-II: Metallothinine (MT), thought to protect cells from reactive oxygen species
- clinical score ([9]; rats treated starting at the day of onset of symptoms, controls 4.5): 2

Molecule: CN1C(C(=O)Nc2ccccn2)=C(O)c2ccccc2S1(=O)=O [piroxicam]
- mean clinical grade/score in treated rats ([9]; rats): 1.5

B1: MBP: myelin basic protein fed for oral tolerance (protein, UniProt P02686 1-304, looked up)
Myelin basic protein: MGNHAGKRELNAEKASTNSETNRGESEKKRNLGELSRTTSEDNEVFGEADANQNNGTSSQDTAVTDSKRTADPKNAWQDAHPADPGSRPHLIRLFSRDAPGREDNTFKDRPSESDELQTIQEDSAATSESLDVMASQKRPSQRHGSKYLATASTMDHARHGFLPRHRDTGILDSIGRFFGGDRGAPKRGSGKDSHHPARTAHYGSLPQKSHGRTQDENPVVHFFKNIVTPRTPPPSQGKGRGLSLSRFSWGAEGQRPGFGYGGRASDYKSAHKGFKGVDAQGTLSKIFKLGGRDSRSGSPMARR
- maximum disease severity score ([9]; rats fed prior to disease induction, control 4): 1.4
- reduction of EAE incidence ([4]; animals, species not given): 80%
- disease severity score in treated mice [5]: 0.6
